Laboratory results: PMC12434536, “Radiosynthesis and Preclinical Evaluation of a Carbon-11 Labeled Phosphodiesterase 7 Inhibitor for PET Neuroimaging” (ACS Medicinal Chemistry Letters, 2025)
Where two headings read alike, the source gives them in different places.

Legend:
PDE7 [1] = conditions: Figure 1, literature compounds; cited from earlier work
PDE4 = conditions: Figure 1, literature compounds; cited from earlier work
PDE7A = conditions: Figure 1, literature compounds; cited from earlier work
PDE4B = conditions: Figure 1, literature compounds; cited from earlier work
PDE7A1 = conditions: Figure 1, literature compounds; cited from earlier work
PDE4D3 = conditions: Figure 1, literature compounds; cited from earlier work
PDE4A4 = conditions: Figure 1, literature compounds; cited from earlier work
[2] = target: T1, HEK293-PDE7B recombinant cell lines (Homo sapiens, UniProt Q9NP56); assay: In vitro cell uptake and blocking of [11C]27; format: cell-based
T1 construct: host or cells: HEK293
T1 sequence (Q9NP56 whole entry): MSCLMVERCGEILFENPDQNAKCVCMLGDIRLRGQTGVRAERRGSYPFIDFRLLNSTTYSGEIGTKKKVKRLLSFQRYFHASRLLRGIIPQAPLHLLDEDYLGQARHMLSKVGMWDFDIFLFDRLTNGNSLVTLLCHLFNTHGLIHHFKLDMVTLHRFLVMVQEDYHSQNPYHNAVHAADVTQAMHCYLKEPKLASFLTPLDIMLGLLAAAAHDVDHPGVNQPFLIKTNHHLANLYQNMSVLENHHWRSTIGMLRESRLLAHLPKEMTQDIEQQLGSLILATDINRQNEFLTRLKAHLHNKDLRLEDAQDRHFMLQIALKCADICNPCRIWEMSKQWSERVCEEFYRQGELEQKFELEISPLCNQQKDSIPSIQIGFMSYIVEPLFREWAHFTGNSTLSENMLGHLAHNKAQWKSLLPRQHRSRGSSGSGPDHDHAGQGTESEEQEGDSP
Description: Control study: HEK293-PDE7B Recombinant cells (catalog#60412, BPS Bioscience) and HEK293 control cells (catalog# CRL-1573, ATCC) – both in logarithmic growth phase – were plated in a 24 well plate (2 × 10^5 cells per well) and cultured overnight. After 24 hr, each well was added 2 μCi of [ 11C]27, and incubated at 37 °C for 30 min or 60 min. The radioactive medium was aspirated and collected in a tube. The residual cells were washed twice with PBS, and then collected in the same tube. The cells were lysed with 1 N NaOH (200 μL) and washed twice with PBS, all the resulting solutions were collected in one tube.
The radioactivity in the collected supernatant and cell lysis buffer (600 μL/tube) was measured using a Cobra Model 5002/5003 gamma counter, respectively.
Blocking study: HEK293-PDE7B cells in logarithmic growth phase were plated in 24 well plate (2 × 10^5 cells per well) and cultured overnight. After 24 h, each well was added 2 μCi of [11C]27 with or without unlabeled reference compound 27 or BRL50481, respectively. The resulting culture medium contained 2 μCi of [ 11C]27, 1 µM of unlabeled compound 27 or BRL50481, and 5% DMSO. Cells were incubated at 37 °C for 60 min and samples were collected as described for the control study. The cell uptake was calculated according to the following eq.: cell uptake% = A lysis buffer/(A lysis buffer+Asupernate) (n = 4)

PDE7B = conditions: Figure 1, literature compounds; cited from earlier work
GSK3 = conditions: Figure 1, literature compounds; cited from earlier work
[3] = Lipophilicity by shake-flask method; format: physicochemical; conditions: pH 7.4, n-octanol/PBS, n = 3
Description: The general procedure for lipophilicity measurement was previously described, 4 with minor modification in this work. Briefly, the measurement of LogD value was carried out by mixing [11C]27 (radiochemical purity > 99%) with n-octanol (3.0 g) and PBS (0.1 M, 3.0 g) in a test tube. Both n-octanol and PBS were pre-saturated with each other prior to use. The tube was first vortexed for 5 min, followed by centrifugation (~3500-4000 rpm) for an additional 5 min. PBS and n-octanol were aliquoted, weighed and the radioactivity in each component was measured using a Cobra Model 5002/5003 gamma counter. The LogD was determined by Log [ratio of radioactivity in n-octanol and aqueous layer, respectively] (n = […]
For the evaluation of plasma protein binding,5 55.5 MBq radiotracer was added to 150 μL of plasma, which was pre-incubated under 37 °C for 5 min (n = 3). The samples were incubated at 37 °C for 10 min. To each 150 μL of radiotracer-plasma solution was added 300 μL of ice-cold PBS and all samples were briefly vortexed. […] The radioactivity (in Becquerel) was measured in the protein fraction (Aprotein), filtrate, and filter unit using a gamma counter (Wizard, PerkinElmer), Atotal was calculated as the sum of radioactivity, and the free fraction f u was calculated according to the following eq.: f u = 1-

[4] = In vitro stability of the formulated tracer (PBS with 10% ethanol; serum); format: in vitro ADME; conditions: 30, 60, 90 min; PBS containing 10% ethanol and serum of rodents, NHPs, humans
PDE7 [5] = assay: microPET imaging in mice; format: in vivo, C57BL/6 mice; conditions: p.i.
Description: C57BL/6 mice (female; 8 weeks, 20–25 g) and Sprague-Dawley rats (male;
Rodent PET scans were carried out using a Genisys 4 PET (Sofie Biosciences, Culver, CA,
manufacturer’s acquisition software. Volumes of interest, including whole brain, cortex,

PDE7 [6] = assay: PET imaging in rats (baseline and self-blocking); format: in vivo, Sprague-Dawley rats; conditions: rats
Description: page 10: All animal experiments were approved by the Institutional Animal Care and Use Committee of Massachusetts General Hospital or the National Institute of Radiological Sciences (Japan). C57BL/6 mice (female; 8 weeks, 20-25 g) and Sprague-Dawley rats (male; 8-9 weeks; 264-310 g) were kept on a 12 h light/12 h dark cycle and were allowed food and water ad libitum. Rodent PET scans were carried out using a […] (Sofie Biosciences, Culver, CA, USA) or a Siemens Inveon PET/CT system. Animals were kept under anesthesia using 1-2% (v/v) isoflurane in oxygen during the scan. The radiotracer (1.85 MBq for mice; 42-53 MBq for rats) was injected into the tail vein via a preinstalled catheter. A dynamic scan in 3D list mode was acquired for 60 min. The PET dynamic images were reconstructed using the manufacturer's acquisition software. Volumes of interest, including whole brain, cortex, striatum, hippocampus, thalamus and cerebellum were placed using AMIDE / PMOD software. The radioactivity was decay-corrected and expressed as standardized uptake value (SUV = radioactivity per mL tissue / injected radioactivity × bodyweight). S8

PDE7 [7] = assay: PET imaging in nonhuman primates (baseline and self-blocking); format: in vivo, Cynomolgus monkeys; conditions: monkeys
[8] = Whole-body ex vivo biodistribution; format: in vivo; conditions: CD-1 mice
Description: PET imaging in nonhuman primates
Cynomolgus monkeys used for PET/CT scan were deprived of food for 12h but allowed to drink water at any time. Animals (Male, bodyweight 5.0-5.2 kg) were anesthetized with ketamine, placed into the scanner (GE Discovery Elite 690, USA), and maintained with 2% isoflurane and 98% oxygen. A solution of [11C]27 (6.24–9.84 mCi) was injected into the monkey via a venous catheter, followed by a dynamic PET scan. For the blocking study, the blocking reagent reference compound 27 (0.4 or 1.0 mg/kg, iv) was used, followed by the injection of [11C]27. Time-activity curves of each brain region were extracted from the corresponding VOIs and brain uptake was decay-corrected and expressed as SUV. biodistribution studies in miceWhole-body ex vivo
A solution of [11C]27 (1.85 MBq/100 µL) was injected into CD-1 mice via the tail vein.
Animals were sacrificed at 5, 15, 30, and 60 min post radiotracer injection (n= 4 for each time point). […] The radioactivity in these tissues was measured using a Cobra Model 5002/5003 gamma counter, and all radioactivity measurements were decay corrected based on the half-life of carbon-11. The results are expressed as the percentage of injected dose per gram of wet tissue (%ID/g).

[9] = Radiometabolite analysis in brain and plasma; format: in vivo, SD rats; conditions: n = 2; for parent fraction in plasma: rat plasma
Description: After intravenous injection of [11C]27 through the tail vein, SD rats were sacrificed at 5 min and 30 min post injection. Blood samples were collected and centrifuged at 14,000 rpm for 3 min at 4 °C to separate the plasma. The supernatant was collected and added to an ice-cooled test tube containing 100 μL of CH 3CN. After vortex for 10 s, the mixture was centrifuged at 14000 rpm for 3 min at 4 °C for deproteinization. The supernatant was collected, and the process was repeated until no precipitations were observed when CH3CN was added. The rat brain was immediately dissected, homogenized with 400 μL of ice-cooled CH3CN, and then centrifuged at 14,000 rpm for 5 min at 4 °C. The supernatant was collected in a test tube containing 100 μL of ice-cooled CH 3CN, and the process (vortex and centrifuge) was repeated until no precipitations were observed when CH3CN was added. An aliquot of the supernatant (100 µL), obtained from the brain homogenate, was injected into and analyzed by a radio-HPLC system. The percentage of [11C]27 to total radioactivity (corrected for decay) on the HPLC charts was calculated as (peak area for [11C]27/total peak area) × 100. The same procedure was used for metabolite analysis in plasma.
Statistical analysis was performed by Student’s two-tailed t-test, and asterisks were used to indicate statistical significance: * p < 0.05, ** p ≤ 0.01, *** p ≤ 0.001 and ****p < 0.0001.

PDE7 [10] = conditions: cited from earlier work

In the case of `O=C1NS(=O)(=O)N(Cc2ccc(Cl)c(Cl)c2)c2ccccc21` [Compound 1], the IC50 (PDE7 [1]) is given as 8000 nM and the IC50 (PDE4) is given as 19000 nM.
For `COc1ccc(C(=O)CN2c3c(sc4ccccc34)C(=O)NS2(=O)=O)cc1` [Compound 2], the IC50 (PDE4) is given as 30000 nM.
In the case of `Nc1nc2c(nc(Br)n2C2CCCc3cccc(Br)c32)c(=O)[nH]1` (centres unmarked) [Compound 3], the IC50 (PDE7 [1]) is given as 1210 nM.
For `CCOC(=O)c1sc(Nc2nc(NCc3ccc(S(N)(=O)=O)cc3)c3c(ncn3CC)n2)nc1C` [Compound 4], the IC50 (PDE7 [1]) is given as 11 nM.
In the case of `CCCCOc1nc2c(c(=O)n(C)c(=O)n2C)n1CCCC(=O)Nc1cc(C(C)(C)C)ccc1O` [Compound 5], the IC50 (PDE7A) is listed as 5070 nM and the IC50 (PDE4B) is listed as 5430 nM.
For `CCn1c(NC(C)C)nc2c(C3CCN(C(C)=O)C3)csc2c1=O` (centres unmarked) [Compound 6], the IC50 (PDE7A) is given as 15 nM and the IC50 (PDE4B) is given as 1900 nM.
In the case of `CCOC(=O)c1sc(Nc2nc(N3CCNCC3)c3c(n2)N(Cc2cc(OC)c(OC)c(OC)c2)CC3)nc1C` [Compound 7], the IC50 (PDE7 [1]) is given as 6 nM.
For `O=[N+]([O-])c1ccc(Sc2ccncc2)c(Cl)c1` [Compound 10], the IC50 (PDE7 [1]) is given as 180 nM.
For `COc1cc(COC(=O)c2ccc(-c3ccccc3)o2)cc(OC)c1OC` [Compound 11], the IC50 (PDE7A1) is given as 5100 nM.
For `Cn1nc(-c2ccc(C(N)=O)cc2)s/c1=N\C1CCCCC1` [Compound 12], the IC50 (PDE7A1) is given as 61 nM and the IC50 (PDE4D3) is given as 15300 nM.
In the case of `O=C(Nc1ccc(N2CCOCC2)cc1)c1cn(Cc2c(F)cccc2Cl)c2ccc(=O)[nH]c2c1=O` [Compound 13], the IC50 (PDE7A1) is listed as 13 nM and the IC50 (PDE4A4) is listed as greater than 1000 nM.
In the case of `O=c1[nH]c(=S)[nH]c2cc(F)c(F)cc12` [Compound 15], the IC50 (PDE7A) is given as 74 nM.
In the case of `Cn1c(-c2ccoc2)nc(=O)c2ccccc21` [Compound 16], the IC50 (PDE7A) is listed as 96 nM.
For `Cc1ccc([N+](=O)[O-])cc1S(=O)(=O)N(C)C` [Compound 17], the “blockade of [11C]27 cell uptake” value ([2]; blocker 1 μM, 60 min incubation, PDE7B overexpressing HEK293 cells, n = 4) is listed as roughly 55%, the IC50 (PDE7A) is listed as 150 nM and the IC50 (PDE7B) is listed as 12100 nM.
In the case of `O=C1Nc2ccc(Cl)c(Cl)c2C2(CCCCC2)N1` [Compound 18], the IC50 (PDE7 [1]) is listed as 14 nM.
In the case of `O=C1Nc2c(Br)cccc2C2(CCCCC2)N1` [Compound 19], the IC50 (PDE7 [1]) is listed as 70 nM.
For `COc1ccc(-c2cc3c(n2-c2ccc(S(=O)(=O)Nc4nc(C)cc(C)n4)cc2)CCC(N2CCN(C)CC2)C3)cc1C` (centres unmarked) [Compound 20], the IC50 (PDE4) is listed as 630 nM and the IC50 (PDE7A) is listed as 14 nM.
In the case of `COc1ccc(C2=NN(C3CCN(C(=O)N4CCOCC4)CC3)C(=O)C3CC=CCC23)cc1Cl` (centres unmarked) [Compound 21], the IC50 (PDE7 [1]) is given as 23 nM and the IC50 (PDE4) is given as 2.3 nM.
For `COc1ccccc1N1CCN(CCCC(=O)Nc2ccc(C(C)(C)C)cc2)CC1` [Compound 22], the IC50 (PDE7A) is listed as 27000 nM and the IC50 (PDE4B) is listed as 96000 nM.
For `c1ccc(-c2nc(=NCc3cccnc3)sn2-c2ccccc2)cc1` [Compound 23], the IC50 (PDE7 [1]) is listed as 380 nM and the IC50 (GSK3) is listed as 1280 nM.
With `[11CH3]Oc1ccc(Cl)c2c1C1(CCCCC1)NC(=O)N2` [[^11C]27] the logD [3] was 3.67 ± 0.04, the in vitro stability [4] was “no obvious degradation or radiolysis was found” and the “radioactivity uptake in HEK293-PDE7B cells versus control cells” value ([2]; 30 and 60 min incubation) was 6–7 fold. For the same molecule, the “time to peak SUV in brain” value (PDE7 [5]) was no more than 2 min, the “plateau of brain uptake” value (PDE7 [6]; at 20 min postinjection) was 0.5 SUV and the “highest SUV values in brain” value (PDE7 [6]; at approximately 5 min postinjection) was greater than 2 SUV. For the same molecule, the “peak SUV (SUVmax) in brain” value (PDE7 [7]; baseline) was 3 SUV, the “time of peak SUV in brain” value (PDE7 [7]; p.i.) was “about 3 min” and the “radioactivity accumulation in heart” value ([8]; 5 min p.i.) was “up to 24 % ID/g”. The cardiac uptake ([8]; within 60 min) was “less than 2%”, the “intact parent fraction in brain” value ([9]; rat brain, 5 min) was “More than 98%” and the “parent fraction in brain homogenates” value ([9]; rat brain, 30 min postinjection) was “more than 75%”. The “parent fraction in plasma” value ([9]; 5 min p.i.) was 70% ± 18% and the “parent fraction in plasma” value ([9]; 30 min p.i.) was 19% ± 0.6%.
In the case of `O=C1Nc2c(Cl)ccc(OCC[18F])c2C2(CCCCC2)N1` [[^18F]-MICA-003], the “affinity to PDE7” value (PDE7 [10]; ref Thomae et al.) is given as 17 nM.
For `O=C1Nc2c(Cl)ccc(Oc3c(F)cccc3C(=O)N3CC([18F])C3)c2C2(CCCCC2)N1` [[^18F]-P7-2302], the “affinity to PDE7” value (PDE7 [10]; earlier 18F-isotopologue of the same spiro quinazoline structure) is listed as 0.18 nM.
